Patent publication US20200352912A1, “ANTIMICROBIAL COMPOSITIONS AND METHODS OF USING THE SAME” (The Board Of Supervisors Of Louisiana State University And …, priority 2018, published 2020)

Tests used:
[1] = tested on: pre-formed dual-species biofilm; test: pre-formed mature biofilm (XTT, CFU); type: cell-based, C. albicans and S. aureus; details: 100 and 200 μg/ml
Procedure: The effect of L-161, 982 on pre-formed mature biofilms was tested. Mono- and dual-species C. albicans and/or S. aureus biofilms were grown on 96-well plates for 24 h before being treated with the indicated concentration of L-161, 982 for a further 24 h. After treatment, metabolic activity of biofilms was quantified by the XTT assay (A) and then biofilms were disrupted to determine live colony forming units (CFU) (B). The results are cumulative of three independent experiments with duplicate samples. Statistics were performed using One-way ANOVA with the Tukey post-hoc test for the XTT assay. The Mann-Whitney U test was used to analyze CFU data. Significance is indicated as follows: ns—not significant, *P<0.05; *** P<0.001. Error bars represent standard deviation.
(§1) Following growth as described above, microbes were washed in phosphate-buffered saline (PBS) by centrifugation, counted on a hemocytometer, and adjusted to 2×10^7 CFU/ml in RPMI buffered with MOPS (165 mM). […]
(§2) The XTT reduction assay was used to determine the metabolic activity of biofilms following treatment with L-161, 982 (17). Briefly, wells were washed once in PBS, and plates incubated at 37° C. for 2 h with 200 μl XTT working reagent (0.5 mg/ml XTT and 1 μM Menadione) and the resulting absorbance measured at 490 nm on a microplate spectrophotometer. […]

IP = IP (Homo sapiens, UniProt P43119); details: cited from earlier work
HCA-7 colon cancer cells = details: 10 μM; cited from earlier work
DP = DP (Homo sapiens, UniProt Q13258); details: cited from earlier work
planktonic S. aureus = test: MIC/MBC assay (CLSI broth dilution); type: cell-based; details: Staphylococcus aureus
Procedure: The CLSI reference method for broth dilution antimicrobial susceptibility testing of bacteria was used to determine the MIC of L-161, 982 (CLSI, 2008). Based on inhibition of S. aureus in the planktonic assay, TSB was used for all antimicrobial susceptibility testing of S. aureus. Cells were diluted in sterile TSB to a final concentration of 5.0×10^5 CFU/ml and 200-μl aliquots (1×10^5 CFU/well) were added to wells of sterile round-bottom 96-well plates. A stock solution of L-161, 982 was diluted in sterile TSB prior to addition to cells. Drug concentrations tested ranged from 1 to 100 μg/ml and were tested in triplicate. The plates were incubated at 37° C. for 24 h and the OD600 measured using a microplate spectrophotometer (BioTek Instruments, Synergy 2). Bacteriostatic or bactericidal activity was assessed by plating 20 μl of broth from all wells with no visible growth on TSA plates and plates incubated at 37° C. for 24-48 h. The MBC was the lowest drug concentration that prevented growth.

S. aureus = test: ATP detection assay (BacTiter-Glo); type: cell-based, Staphylococcus aureus; details: 12.5-200 μg/ml, 5 h
Procedure: S. aureus was incubated with various concentrations of L-161,982 in a 96-well plate in triplicate for 5 h at 37° C. ATP production was measured in samples normalized to viable cell number using the BacTiter-Glo™ Assay (Promega) and measuring luminescence. Background luminescence from media alone samples was subtracted from experimental samples. Results represent the means+/−standard deviation. Data shown are representative of two independent experiments. ** p<0.01; *** p<0.001 control vs drug-treated.
ATP detection assay. S. aureus was diluted 100-fold in 10 ml of fresh Mueller Hinton II broth which was used as the inoculum. The inoculum was incubated with various concentrations of L-161,982 (12.5-200 μg/ml) in a 96-well plate in triplicate for 5 h at 37° C. After incubation, cells L-161,982 were stained with LIVE/DEAD Baclight bacterial viability stain (Invitrogen) and viable cells were counted. Samples were normalized to viable cell number before transferring to an opaque-walled 96-well plate. An equal volume of BacTiter-Glo™ Reagent (Promega) was added. The plate was allowed to develop for 5 min at room temperature. Luminescence was quantified using a BioTek Synergy 2 plate reader. A media alone control was used to detect background luminescence.

human EP4 receptors = human EP4 receptors (Homo sapiens, UniProt P35408); details: cited from earlier work
[2] = tested on: C. albicans mono-species biofilm; test: biofilm formation on polystyrene (XTT, CFU); type: cell-based, Candida albicans; details: treated vs untreated mono-species biofilms
Procedure: The effect of L-161,982 on biofilm formation was tested. Mono- and dual-species C. albicans and/or S. aureus biofilms were grown on 96-well plates for 24 h with the indicated concentration of L-161, 982. After incubation, metabolic activity of biofilms was quantified by the XTT assay (A) and then biofilms were disrupted to determine live colony forming units (CFU) (B). The results are cumulative of three independent experiments with duplicate samples. Statistics was performed using One-way ANOVA with the Tukey post-hoc test for the XTT assay. The Mann-Whitney U test was used to analyze CFU data. Significance is indicated as follows: ns—not significant, *P<0.05; *** P<0.001. Error bars represent standard deviation.
as §1, §2

[3] = administration of L-161,982 alone to control animals; type: in vivo, mice
From the text: Furthermore, L-161, 982 protected mice against the synergistic lethality induced by co-infection with C. albicans and S. aureus. […] The goal of these studies was to further investigate the antimicrobial mechanism of action (MOA) of L-161, 982, testing mechanisms associated with major classes of antimicrobials.

Sequence of IP (P43119 whole entry): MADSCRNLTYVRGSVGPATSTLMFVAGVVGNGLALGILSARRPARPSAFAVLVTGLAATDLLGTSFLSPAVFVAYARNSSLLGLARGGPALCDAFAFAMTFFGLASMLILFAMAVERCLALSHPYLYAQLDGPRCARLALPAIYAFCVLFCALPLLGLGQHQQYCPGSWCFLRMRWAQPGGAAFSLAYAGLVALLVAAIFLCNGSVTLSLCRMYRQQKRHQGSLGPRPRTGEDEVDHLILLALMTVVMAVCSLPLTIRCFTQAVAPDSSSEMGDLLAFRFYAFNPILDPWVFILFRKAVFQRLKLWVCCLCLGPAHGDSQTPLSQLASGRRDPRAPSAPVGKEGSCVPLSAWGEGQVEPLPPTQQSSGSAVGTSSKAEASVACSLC
Sequence of DP (Q13258 whole entry): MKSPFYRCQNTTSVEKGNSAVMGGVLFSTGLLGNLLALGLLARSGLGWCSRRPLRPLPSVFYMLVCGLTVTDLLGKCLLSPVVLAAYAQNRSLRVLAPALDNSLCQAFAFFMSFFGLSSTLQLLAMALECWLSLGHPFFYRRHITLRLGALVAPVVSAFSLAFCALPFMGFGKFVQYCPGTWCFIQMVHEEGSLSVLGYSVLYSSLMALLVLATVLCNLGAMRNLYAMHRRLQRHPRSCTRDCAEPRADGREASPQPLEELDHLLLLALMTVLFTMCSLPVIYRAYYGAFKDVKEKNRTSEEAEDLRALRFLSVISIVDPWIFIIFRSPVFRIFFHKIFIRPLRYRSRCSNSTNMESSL
Sequence of human EP4 receptors (P35408 whole entry): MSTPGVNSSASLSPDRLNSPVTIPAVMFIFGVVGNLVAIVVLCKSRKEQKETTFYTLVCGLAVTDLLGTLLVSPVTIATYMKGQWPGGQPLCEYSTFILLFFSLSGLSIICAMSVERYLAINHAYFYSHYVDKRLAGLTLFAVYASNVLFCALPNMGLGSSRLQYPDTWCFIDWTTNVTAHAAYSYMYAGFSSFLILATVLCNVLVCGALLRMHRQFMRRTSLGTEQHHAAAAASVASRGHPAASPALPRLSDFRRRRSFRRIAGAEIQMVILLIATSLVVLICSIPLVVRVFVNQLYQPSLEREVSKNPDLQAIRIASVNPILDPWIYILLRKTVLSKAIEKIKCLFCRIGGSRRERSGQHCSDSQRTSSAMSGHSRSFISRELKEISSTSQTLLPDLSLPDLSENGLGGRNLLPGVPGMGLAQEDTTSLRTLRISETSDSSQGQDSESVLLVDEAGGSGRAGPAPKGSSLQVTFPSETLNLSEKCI

CCCCc1nn(-c2ccccc2C(F)(F)F)c(=O)n1Cc1ccc(-c2ccccc2S(=O)(=O)NC(=O)c2sccc2C)cc1 [L-161, 982, N-[[4′-[[3-Butyl-1,5-dihydro-5-oxo-1-[2-(trifluoromethyl)phenyl]-4H-1,2,4-triazol-4-yl]methyl][1,1′-biphenyl]-2-yl]sulfonyl]-3-methyl-2-thiophenecarboxamide]
S. aureus CFUs recovered from pre-formed dual-species biofilm [1]: no CFUs were recovered
Ki (IP): 6.7 µM
effect on PGE2-induced cell proliferation (HCA-7 colon cancer cells): blocks PGE2-induced cell proliferation
Ki (DP): 5.1 µM
MBC (planktonic S. aureus): 100 µg/mL
MIC (planktonic S. aureus; TSB, 24 h, read-out: minimum inhibitory concentration (MIC)): 50 µg/mL
ATP production (S. aureus): significantly inhibited ATP production
Ki (human EP4 receptors): 0.024 µM
metabolic activity during biofilm formation [2]: no significant inhibition
morbidity or mortality in control animals [3]: no morbidity or mortality
overt signs of toxicity [3]: did not cause any overt signs of toxicity
